Assay results reported in US10246456B2, “IRAK4 inhibiting agents” (BIOGEN MA INC., priority 2014, dated 2019).
pEC50, pIC50: −log10 of the molar value.

What was measured:
IL-6 in A549 cells = experiment: Cell-based IL-6 ELISA assay in IL-1beta stimulated A549 cells; conditions: 2 ng/ml human IL-1beta overnight
Description: The cell-based assays is based on IL-6 ELISA quantification. Briefly, A549 cells are cultured in DMEM with 10% FBS medium. When cells reach 80% confluence they are trypsin treated and seeded 180 ul/well in 96-well plate at 2.5×10^4 cells/well. Then, 20 ul of compound serial dilutions (starting at 10 uM, 10 points) are added to the cell plate; incubate for 30 min at 37 C and stimulated with 2 ng/ml human IL-1beta 37 C, 5% CO2 overnight. The next day 100 ul of cell supernatant per well are analyzed on a Human IL-6 Quantikine ELISA kit from R&D Systems.

IRAK4 = IRAK4 (Homo sapiens (Human), UniProt Q9NWZ3); experiment: IRAK-4 AlphaScreen biochemical kinase assay; conditions: 1 nM IRAK4, 1 mM ATP, 3.5 h at RT
Summary of the method: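 AlphaScreen read-out: streptavidin beads bind the biotinylated peptide and protein A beads bind the anti-phosphothreonine antibody, so energy transfer reports phosphorylation of the peptide. The kinase is human IRAK-4.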

Sequence of IRAK4 (Q9NWZ3 whole entry, species assumed): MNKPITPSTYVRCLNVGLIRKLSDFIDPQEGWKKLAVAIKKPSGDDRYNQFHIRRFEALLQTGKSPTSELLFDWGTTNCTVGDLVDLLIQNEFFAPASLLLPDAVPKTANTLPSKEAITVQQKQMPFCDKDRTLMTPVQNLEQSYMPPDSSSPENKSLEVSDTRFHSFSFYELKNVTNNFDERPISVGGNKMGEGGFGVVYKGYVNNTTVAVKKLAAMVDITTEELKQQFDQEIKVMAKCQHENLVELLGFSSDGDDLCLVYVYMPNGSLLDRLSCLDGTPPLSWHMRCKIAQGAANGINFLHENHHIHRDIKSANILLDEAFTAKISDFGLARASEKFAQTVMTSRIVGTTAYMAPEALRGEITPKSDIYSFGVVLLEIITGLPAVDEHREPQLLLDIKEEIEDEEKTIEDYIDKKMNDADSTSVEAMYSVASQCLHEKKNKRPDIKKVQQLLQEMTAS

| SMILES | pEC50 (IL-6 in A549 cells) | pIC50 (IRAK4) |
| --- | --- | --- |
| CCOc1cc(-c2cccc([C@@H](N)[C@@H](CC)OC)n2)cc2c1cnn2-c1cccc(CO)n1 [Example 445, (6-(6-(6-((1R,2R)-1-amino-2-methoxybutyl)pyridin-2-yl)-4-ethoxy-1H-indazol-1-yl)pyridin-2-yl)methanol] | ≥ 6.00 | > 7.00 |
| CCOc1cc(-c2cccc([C@@H](N)CCCOC)n2)cc2c1cnn2-c1cccc(CO)n1 [Example 513, (S)-(6-(6-(6-(1-amino-4-methoxybutyl)pyridin-2-yl)-4-ethoxy-1H-indazol-1-yl)pyridin-2-yl)methanol] | ≥ 6.00 | > 7.00 |
| CCC[C@H](N)c1cccc(-c2ccc3cnn(-c4nccc(C(F)(F)F)n4)c3c2)n1 [Example 531, (S)-1-(6-(1-(4-(trifluoromethyl)pyrimidin-2-yl)-1H-indazol-6-yl)pyridin-2-yl)butan-1-amine] | ≥ 6.00 | > 7.00 |
| C[C@H](N)c1cccc(-c2cc(-c3ccsn3)c3cnn(-c4cccc(CO)n4)c3c2)n1 [Example 370, (S)-(6-(6-(6-(1-aminoethyl)pyridi9n-2-yl)-4-(isothiazol-3-yl)-1H-indazol-1-yl)pyridin-2-yl)methanol] | ≥ 6.00 | > 7.00 |
| CS(=O)(=O)CC(N)c1cccc(-c2ccc3cnn(-c4cccc(CO)n4)c3c2)n1 (centres unmarked) [Example 532, (6-(6-(6-(1-amino-2-(methylsulfonyl)ethyl)pyridin-2-yl)-1H-indazol-1-yl)pyridin-2-yl)methanol] | ≥ 6.00 | > 7.00 |
| C[C@H](N)c1cccc(-c2cc(-n3ccnc3)c3cnn(-c4cccc(CO)n4)c3c2)n1 [Example 354, (S)-(6-(6-(6-(1-aminoethyl)pyridin-2-yl)-4-(1H-imidazol-1-yl)-1H-indazol-1-yl)pyridin-2-yl)methanol] | ≥ 6.00 | > 7.00 |
| CCC[C@H](N)c1cccc(-c2cc(N3CCC(F)(F)C3)c3cnn(-c4cccc(CO)n4)c3c2)n1 [Example 333, (S)-(6-(6-(6-(1-aminobutyl)pyridin-2-yl)-4-(3,3-difluoropyrrolidin-1-yl)-1H-indazol-1-yl)pyridin-2-yl)methanol] | ≥ 6.00 | > 7.00 |
| CCC[C@H](N)c1cccc(-c2cc(N3CC(C)OC(C)C3)c3cnn(-c4cccc(CO)n4)c3c2)n1 (stereo partly drawn) [Example 335, (6-(6-(6-((S)-1-aminobutyl)pyridin-2-yl)-4-(2,6-dimethylmorpholino)-1H-indazol-1-yl)pyridin-2-yl)methanol] | ≥ 6.00 | > 7.00 |
| CCC[C@H](N)c1cccc(-c2cc(N3CCCC(C(=O)O)C3)c3cnn(-c4cccc(CO)n4)c3c2)n1 (stereo partly drawn) [Example 349, 1-(6-(6-((S)-1-aminobutyl)pyridin-2-yl)-1-(6-(hydroxymethyl)pyridin-2-yl)-1H-indazol-4-yl)piperidine-3-carboxylic acid] | ≥ 6.00 | > 7.00 |

The next lines start with the values.

| pEC50 (IL-6 in A549 cells) | pIC50 (IRAK4) | SMILES |
| --- | --- | --- |
| ≥ 6.00 | > 7.00 | CC[C@H](N)c1cccc(-c2cc(OC)c3cnn(-c4cncc(CO)n4)c3c2)n1 [Example 503, (S)-(6-(6-(6-(1-aminopropyl)pyridin-2-yl)-4-methoxy-1H-indazol-1-yl)pyrazin-2-yl)methanol] |
| ≥ 6.00 | > 7.00 | CCC[C@H](N)c1cccc(-c2cc(N3CCOC(C)C3)c3cnn(-c4cccc(CO)n4)c3c2)n1 (stereo partly drawn) [Example 334, (6-(6-(6-((S)-1-aminobutyl)pyridin-2-yl)-4-(2-methylmorpholino)-1H-indazol-1-yl)pyridin-2-yl)methanol] |
| ≥ 6.00 | > 7.00 | CC(C)C[C@H](N)c1cccc(-c2ccc3cnn(-c4cccc(CO)n4)c3c2)n1 [Example 521, (S)-(6-(6-(6-(1-amino-3-methylbutyl)pyridin-2-yl)-1H-indazol-1-yl)pyridin-2-yl)methanol] |
| ≥ 6.00 | > 7.00 | CC(O)CC(N)c1cccc(-c2ccc3cnn(-c4cccc(CO)n4)c3c2)n1 (centres unmarked) [Example 508, 4-amino-4-(6-(1-(6-(hydroxymethyl)pyridin-2-yl)-1H-indazol-6-yl)pyridin-2-yl)butan-2-ol] |
